Laboratory results as given in US7622469B2, “2,4-diamino-1,3,5-triazine derivatives” (Hamari Chemicals, Ltd., priority 2002, dated 2009).
In brackets after ≈: the same amount, converted by molar mass.

Key:
Assay in all cases: Antibacterial activity test (MIC)
Conditions in all cases: Mueller-Hinton Broth, 37° C., 20 to 24 hours
MRSA 97-115 = type: cell-based, methicillin-resistant Staphylococcus aureus
Protocol: (§1) Regarding compounds obtained in respective Working Examples, in order to investigate antibacterial activity, minimal inhibitory concentration (MIC) was determined according to a standard method of Japanese Society of Chemotherapy.
(§2) As a test bacterium, nine kinds of S. aureus 209PJC, MRSA 97-115, MRSA KM 97-53, MRSA KM97-108, VRE 49, E. coli NIHJ JC-2, P. aeruginosa PAO-1, P. aeruginosa No. 12, P. aeruginosa KM97-5 were used and, as a medium, Mueller-Hinton Broth (DIFCO) was used. One platinum loop of a test bacterium was inoculated into 20 ml of a medium, and static culture was carried out at 37° C. for 16 to 20 hours, and then each bacterium species was diluted with a sterilized physiological saline to 10^5/ml, which was used as a test bacterium solution.
(§3) Then, each compound was dissolved in methanol, subjected to ½ stepwise dilution with a medium to prepare a medium for measuring sensitivity, and each 2 ml was dispensed into a test tube. A compound concentration in a medium was adjusted to 100 μg/ml and its 2^n-fold (n=−10 to 1).
(§4) Numerical values in Tables represent MIC expressed in μg/ml unit.

S. aureus 209PJC = type: cell-based
Protocol: as §1, §2, §3, §4

E. coli NIHJ JC-2 = type: cell-based
Protocol: as §1, §2, §3, §4

P. aeruginosa PAO-1 = type: cell-based
Protocol: as §1, §2, §3, §4

Row | Compound | minimal inhibitory concentration (MIC) (MRSA 97-115) [µg/mL] | minimal inhibitory concentration (MIC) (S. aureus 209PJC) [µg/mL] | minimal inhibitory concentration (MIC) (E. coli NIHJ JC-2) [µg/mL] | minimal inhibitory concentration (MIC) (P. aeruginosa PAO-1) [µg/mL]
1 | CCCCCCCCCNC1=NC(C)(C)N=C(NCCc2ccc(OC)cc2)N1.Cl [compound 5] | 0.9 | 0.5 | – | –
2 | CCCCCCCCNC1=NC(C)(C)N=C(NCCCCCC)N1.O=C(O)C(O)C(O)C(O)C(O)CO [compound 76] | 1.6 | 0.8 | 25 | 50
3 | CCCCCCCCC1N=C(N)N=C(N)N1c1ccc(OC(F)(F)F)cc1.Cl (stereo not shown) [compound 26] | 6.3 | 3.1 | 50 | 50
4 | CCCCCCCNC1=NC(CC)(CC)N=C(NCc2ccccc2)N1.Cl [compound 53] | 3.1 | 1.6 | 50 | 100
5 | CCCCCCCCCCNC1=NC(C)(C)N=C(NCc2ccccc2)N1.O=C(O)C(=O)O [compound 42] | 1.6 | 0.8 | 12.5 | 12.5
6 | CCCCCCCCCCNC1=NC(C)(C)N(c2ccc(OC)cc2)C(N)=N1.Cl [compound 14] | 3.1 | 3.1 | 50 | 100
7 | CCCCCCCCCCC1N=C(N)N=C(N)N1c1ccc(F)cc1F.Cl (stereo not shown) [compound 33] | 3.1 | 1.6 | 25 | 50
8 | CC(=O)O.CCCCCCCCNC1=NC(C)(C)N=C(NCCCCCCC)N1 [compound 67] | 1.6 | 0.8 | 100 | 100
9 | CC(=O)O.CCCCCCCCCNC1=NC(C)(C)N=C(Nc2ccccc2)N1 [compound 62] | 0.8 | 0.8 | 12.5 | 12.5
10 | CC(=O)O.CCCCCCCCCCCCNC1=NC(C)(C)N=C(NCc2ccco2)N1 [compound 79] | 1.6 | 0.8 | 50 | 100
11 | CCCCCCCCNC1=NC(C)(C)N(c2cnc3ccccc3c2)C(N)=N1.Cl.Cl [compound 81] | 1.6 | 0.8 | 12.5 | 50
12 | CCCCCCCCCCNC1=NCN=C(NCCc2ccc(OC)cc2)N1.Cl [compound 10] | 6.4 | 0.4 | – | 26
13 | CCCCCCCCCC1N=C(N)N=C(N)N1c1ccc(OC(F)(F)F)cc1.Cl (stereo not shown) [compound 28] | 3.1 | 1.6 | 25 | 50
14 | CCCCCCCC1N=C(N)N=C(N)N1c1ccc(C(C)(C)C)cc1.Cl (stereo not shown) [compound 20] | 3.1 | 3.1 | 50 | 50
15 | CCCCCCCCC1N=C(N)N=C(N)N1c1ccc(C(C)(C)C)cc1.Cl (stereo not shown) [compound 21] | 3.1 | 1.5 | 25 | 50
16 | CCCCCCCCCC1N=C(N)NC(Nc2ccc(OC(F)(F)F)cc2)=N1.Cl (stereo not shown) [compound 29] | 1.6 | 0.8 | >100 | >100
17 | CCCCCCCCCCCC1(C)N=C(N)N=C(N)N1c1ccc(Cl)cc1.Cl (racemic) [compound 45] | 0.4 | 0.4 | >100 | >100
18 | CCCCCCCCCCNC1=NC(C)(C)N=C(NCc2ccc(OC)cc2)N1.O=C(O)C(=O)O [compound 40] | 0.8 | 0.4 | 25 | 25
19 | CC(=O)O.CCCCCCCCNC1=NCN=C(NCCCCCCCC)N1 [compound 74] | 0.8 | 0.8 | 12.5 | 100
20 | CC(=O)O.CCCCCCCCCCCCNC1=NC(C)(C)N=C(NCC)N1 [compound 73] | 1.6 | 0.8 | 12.5 | 50
21 | CCCCCCCCCCCC1N=C(N)N=C(N)N1c1ccc(F)cc1F.Cl (racemic) [compound 35] | 3.1 | 0.8 | 25 | 25
22 | CCCCCCCCCCCCNC1=NC(C)(C)N=C(NCc2ccc(S(N)(=O)=O)cc2)N1 [compound 80] | 1.6 (≈ 3.34 µM) | 0.4 (≈ 0.836 µM) | >100 | >100
23 | CC(=O)O.CCCCCCCCCCNC1=NC(C)(C)N=C(NCc2ccccc2)N1 [compound 50] | 0.4 | 0.4 | – | 25
24 | CCCCCCCCCCCCNC1=NC(C)(C)N=C(N)N1.O=[N+]([O-])O [compound 75] | 3.1 | 0.8 | 25 | 50
25 | CC(=O)O.CCCCCCCNC1=NC(C)(C)N=C(NCCCCCC)N1 [compound 70] | 1.6 | 0.8 | 25 | 25
26 | CCCCCCCCCCNC1=NC(C)(C)N=C(NCc2ccc(O)cc2)N1.Cl [compound 7] | 0.8 | 0.2 | 12.5 | 50
27 | CCCCCCCCC1N=C(N)NC(NCc2ccc(C(F)(F)F)cc2)=N1.Cl (stereo not shown) [compound 17] | 1.6 | 0.8 | 12.5 | 25
28 | CCCCCCCCC1N=C(N)NC(Nc2cc(C(C)(C)C)ccc2OC)=N1 (stereo not shown) [compound 25] | 1.6 (≈ 4.13 µM) | 1.6 (≈ 4.13 µM) | – | –
29 | CCCCCCCCCCNC1=NC(C)(C)N=C(NCc2ccc(OC)c(OC)c2)N1.Cl [compound 3] | 1.6 | 1.6 | 25 | –
